Measured values as given in patent USH2260H1, “Stents combined with paclitaxel derivatives” (Angiotech International AG, priority 2005, dated 2011).
“Also recorded” adds a separate entry of the source.

Experiments:
[1] = tested on: collagenase expression; experiment: Effect of other anti-microtubules on IL-1 induced collagenase expression in primary chondrocytes; type: cell-based, calf; conditions: pre-incubation 6 hours, IL-1 20 ng/ml 18 hours; FIGS. 5A-H
Protocol: Primary chondrocyte cultures were freshly isolated from calf cartilage. The cells were plated at 2.5×10^6 per ml in 100×20 mm culture dishes and incubated in Ham's F12 medium containing 5% FBS overnight at 37° C. The cells were starved in serum-free medium overnight and then treated with anti-microtubule agents at various concentrations for 6 hours. IL-1 (20 ng/ml) was then added to each plate and the plates incubated for an additional 18 hours. Total RNA was isolated by the acidified guanidine isothiocyanate method and subjected to electrophoresis on a denatured gel. Denatured RNA samples (15 μg) were analyzed by gel electrophoresis in a 1% denatured gel, transferred to a nylon membrane and hybridized with the ^32P-labeled collagenase cDNA probe. ^32P-labeled glyceraldehyde phosphate […] (GAPDH) cDNA as an internal standard to ensure roughly equal loading. The exposed films were scanned and quantitatively analyzed with IMAGEQUANT.

[2] = tested on: Chick Chorioallantoic Membrane (CAM); experiment: Chick chorioallantoic membrane (CAM) angiogenesis assay
[3] = tested on: MMP-3 mRNA (stromelysin); experiment: IL-1 induced MMP-3 (stromelysin) mRNA expression in chondrocytes, Northern blot; conditions: pretreatment 24 hours
[4] = tested on: human fibroblasts; experiment: Screening assay, cell proliferation of fibroblasts (CYQUANT); type: cell-based; conditions: Fibroblast, 72 hours, average of n=4 experiments, FIG. 8
Protocol: Fibroblasts at 70-90% confluency were trypsinized, replated at 600 cells/well in media in 96-well plates and allowed to attach overnight. Paclitaxel was prepared in DMSO at a concentration of 10^−2 M and diluted 10-fold to give a range of stock concentrations (10^−8 M to 10^−2 M). […] Each drug concentration was tested in triplicate wells.
To terminate the assay, the media was removed by gentle aspiration. A 1/400 dilution of CYQUANT 400X GR dye indicator (Molecular Probes; Eugene, Oreg.) was added to 1X Cell Lysis buffer, and 200 μL of the mixture was added to the wells of the plate. Plates were incubated at room temperature, protected from light for 3-5 minutes.

[5] = tested on: AP-1 DNA binding activity; experiment: IL-1 induced AP-1 DNA binding activity, gel mobility shift with chondrocyte extracts; type: cell-based; conditions: chondrocytes pretreated with 10^−7 to 10^−5 M for 24 hours, IL-1β 20 ng/ml; FIG. 4C
Protocol: Binding activity was assayed with a radiolabeled human AP-1 sequence probe and gel mobility shift assay. Extracts from chondrocytes untreated or treated with various amounts of paclitaxel (10^−7 to 10^−5 M) followed by IL-1β (20 ng/ml) were incubated with excess probe on ice for 30 minutes, followed by non-denaturing gel electrophoresis. The “com” lane contains excess unlabeled AP-1 oligonucleotide. The results shown are representative of three independent experiments.

[6] = tested on: MMP-1 mRNA (collagenase); experiment: IL-1 induced MMP-1 (collagenase) mRNA expression in chondrocytes, Northern blot; conditions: pretreatment 24 hours

O=C(CCC(=O)ON1C(=O)CCC1=O)OCCOC(=O)CCC(=O)ON1C(=O)CCC1=O [ethylene glycol bis-(succinimidylsuccinate)] was tested, and the “concentration (as low as) preventing IL-1-induced collagenase expression” value (from here on “concentration”) [1] was 100 nM.

With CC(O)CC(C)(C)O (centres unmarked) [hexylene glycol] the “concentration” value [1] was 100 nM.

With CC(=O)O[C@H]1C(=O)[C@@]2(C)[C@H]([C@H](OC(=O)c3ccccc3)[C@]3(O)C[C@H](OC(=O)[C@H](O)[C@@H](NC(=O)c4ccccc4)c4ccccc4)C(C)=C1C3(C)C)[C@]1(OC(C)=O)CO[C@@H]1C[C@@H]2O [paclitaxel] the “angiogenesis in the CAM” value ([2]; 48 hours after application) was “angiogenesis was inhibited”, the “maximal avascular zone, avascular gradient scale” value ([2]; within 48 hours, depending on concentration) was 3 and the “stromelysin mRNA inhibition at 10^−5 M” value ([3]; 10^−5 M paclitaxel) was “complete inhibition”. The “stromelysin mRNA levels” value ([3]; then IL-1β, FIG. 4D) was “inhibited by pretreatment with paclitaxel; also recorded: significantly reduced”, the IC50 [4] was 23 nM and the “IL-1 induced AP-1 binding activity” value [5] was “IL-1 induced binding activity decreased”. The “collagenase mRNA inhibition at 10^−5 M” value ([6]; 10^−5 M paclitaxel) was “complete inhibition” and the “collagenase mRNA levels” value ([6]; then IL-1β, FIG. 4D) was “inhibited by pretreatment with paclitaxel; also recorded: significantly reduced”.

In the case of Nc1ncnc2c1ccn2[C@@H]1O[C@H](CO)[C@@H](O)[C@H]1O [tubercidin], the “concentration” value [1] is reported as 100 nM.
